We go through 25 molecules from patent US8304422B2, “Compositions and methods for inhibition of the JAK pathway” (Rigel Pharmaceuticals, Inc., priority 2007, dated 2012).

For orientation: IC50 means the concentration that gives 50% inhibition. A higher IC50 goes with lower potency.

This experiment relates to Ramos B-Cell Line Stimulated with IL-4. Briefly: Assay for Ramos B-Cell Line Stimulated with IL-4 (CD23 upregulation, FACS; Example 2). In kind it is cell-based. Conditions: human Ramos B cells, IL-4 50 units/mL for 20-24 hours, anti-CD23-PE. From the text: One means of assaying for such inhibition is detection of the effect of the 2,4-pyrimidinediamine compounds on the upregulation of downstream gene products. In the Ramos/IL4 assay, B-cells are stimulated with the cytokine Interleukin-4 (IL-4) leading to the activation of the JAK/Stat pathway through phosphorylation of the JAK family kinases, JAK1 and JAK3, which in turn phosphorylate and activate the transcription factor Stat-6. […] To study the effect of inhibitors (e.g., the 2,4-substituted pyrimindinediamine compounds described herein) on the JAK1 and JAK3 kinases, human Ramos B cells are stimulated with human IL-4. 20 to 24 hours post stimulation, cells are stained for upregulation of CD23 and analyzed using flow cytometry (FACS). […] An exemplary assay of this type is described in greater detail in Example 2.
B-cells stimulated with cytokine Interleukin-4 (IL-4) activate the JAK/Stat pathway through phosphorylation of the JAK family kinases, JAK-1 and JAK-3, which in turn phosphorylate and activate the transcription factor Stat-6. […] To study the effect of inhibitors on the JAK family kinases, human Ramos B cells are stimulated with human IL-4.
The Ramos B-cell line was acquired from ATCC (ATCC Catalog No. CRL-1596). The cells were cultured in RPMI 1640 (Cellgro, MediaTech, Inc., Herndon, Va., Cat No. 10-040-CM) with 10% fetal bovine serum (FBS), heat inactivated (JRH Biosciences, Inc, Lenexa, Kans., Cat No. 12106-500M) according to ATCC propagation protocol. Cells were maintained at a density of 3.5×10^5. The day before the experiment, Ramos B-cells were diluted to 3.5×10^5 cells/mL to ensure that they were in a logarithmic growth phase.
Cells were spun down and suspended in RPMI with 5% serum. 5×10^4 cells were used per point in a 96-well tissue culture plate. Cells were pre-incubated with compound or DMSO (Sigma-Aldrich, St. Louis, Mo., Cat No. D2650) vehicle control for 1 hour in a 37° C. incubator.
Cells were then stimulated with IL-4 (Peprotech Inc., Rocky Hill, N.J., Cat No. 200-04) for a final concentration of 50 units/mL for 20-24 hours. Cells were then spun down and stained with anti-CD23-PE (BD Pharmingen, San Diego, Calif., Cat No. 555711) and analyzed by FACS. Detection was performed using a BD LSR I System Flow Cytometer, purchased from Becton Dickinson Biosciences of San Jose, Calif.
Take `O=S(=O)(NC1CC1)c1ccc(Nc2nc(Nc3ccc(OCc4cccnc4)cc3)ncc2C(F)(F)F)cc1` [I-13, N4-[4-N—(Cyclopropyl)aminosulfonylphenyl]-N2-[4-(3-pyridinyl)methyleneoxyphenyl]-5-trifluoromethyl-2,4-pyrimidinediamine]: the IC50 was 0.549 µM.

The molecule `COc1cccc(N(C)c2ncc(N)c(Nc3cccc(S(N)(=O)=O)c3)n2)c1` [I-10, 5-Amino-N4-(3-aminosulfonylphenyl)-N2-(3-methoxyphenyl)-N2-methyl-2,4-pyrimidinediamine] showed an IC50 of 64.2 µM.

For `Cc1cnc(Nc2cccc(C(N)=O)c2)nc1Nc1ccc(CNS(=O)(=O)C2CC2)c(Cl)c1` [II-18, N2-(3-aminocarbonyl)phenyl-N4-(3-chloro-4-cyclopropylsulfonylaminomethyl)phenyl-5-methyl-2,4-pyrimidinediamine], it took 0.279 µM to reach half-maximal inhibition (IC50).

With `C#CCOc1ccc(Nc2ncc(C)c(Nc3ccc(C)c(S(N)(=O)=O)c3)n2)cc1` [I-2, N4-(3-Aminosulfonyl-4-methylphenyl)-5-methyl-N2-[4-(prop-2-ynyloxy)phenyl]-2,4-pyrimidinediamine], half-maximal inhibition (IC50) required 0.181 µM.

Take `C#CCNS(=O)(=O)c1cccc(Nc2nc(Nc3cc(C)c(OC)c(C)c3)ncc2F)c1` [I-4, N2-(3,5-Dimethyl-4-methoxyphenyl)-5-fluoro-N4-[3-(prop-2-ynylaminosulfonyl)phenyl]-2,4-pyrimidinediamine]: the half-inhibitory concentration (IC50) is 0.0955 µM.

`NS(=O)(=O)c1cccc(Nc2nc(Nc3ccc(OCc4ccccn4)cc3)ncc2C(F)(F)F)c1` [I-12, N4-(3-Aminosulfonylphenyl)-N2-[4-(2-pyridinyl)methyleneoxyphenyl]-5-trifluoromethyl-2,4-pyrimidinediamine]: half-maximal inhibition (IC50) required 1.11 µM.

In the case of `C#CCNS(=O)(=O)c1cccc(Nc2nc(Nc3cc(OC)c(OC)c(OC)c3)ncc2F)c1` [I-1, 5-Fluoro-N4-[3-(prop-2-ynylaminosulfonyl)phenyl]-N2-(3,4,5-trimethoxyphenyl)-2,4-pyrimidinediamine], the IC50 came to 0.14 µM.

The molecule `COc1cccc(N(C)c2ncc(N)c(Nc3ccc(S(N)(=O)=O)cc3)n2)c1` [I-11, 5-Amino-N4-(4-aminosulfonylphenyl)-N2-(3-methoxyphenyl)-N2-methyl-2,4-pyrimidinediamine] registered an IC50 of 15.9 µM.

`Nc1cnc(Nc2ccc3cn[nH]c3c2)nc1Nc1cccc(S(N)(=O)=O)c1` [VIII-8, 5-Amino-N4-(3-aminosulfonylphenyl)-N2-(indazoline-6-yl)-2,4-pyrimidinediamine] came in with a concentration for half-maximal inhibition (IC50) of 5.11 µM.

Molecule `Cc1cnc(Nc2cccc(C(N)=O)c2)nc1Nc1ccc(CN(C)S(=O)(=O)C2CC2)cc1` [II-20, N2-(3-aminocarbonyl)phenyl-N4-[4-(N-cyclopropylsulfonyl-N-methyl)aminomethyl]phenyl-5-methyl-2,4-pyrimidinediamine] returned a half-inhibitory concentration (IC50) of 0.505 µM.

As to `Cc1cnc(Nc2ccc3c(c2)nc(C)n3C)nc1Nc1ccc2c(c1)C(NS(C)(=O)=O)CC2` (racemic) [VIII-3, (+/−)-N2-(1,2-Dimethylbenzimidazol-5-yl)-N4-[1-(methylsulfonylamino)indan-6-yl]-5-methyl-2,4-pyrimidinediamine], the half-inhibitory concentration (IC50) was found to be 0.717 µM.

Molecule `COc1cc(Nc2ncc(C)c(Nc3ccc4c(c3)C(NS(C)(=O)=O)CC4)n2)cc(OC)c1OC` (racemic) [V-1, (+/−)-5-Methyl-N4-[1-(methylsulfonylamino)indan-6-yl]-N2-(3,4,5-trimethoxyphenyl)-2,4-pyrimidinediamine] showed an IC50 of 0.401 µM.

In the case of `CNC(=O)COc1cccc(Nc2ncc(N)c(Nc3cccc(S(N)(=O)=O)c3)n2)c1` [I-7, 5-Amino-N4-(3-aminosulfonylphenyl)-N2-[3-(N-methylamino)carbonylmethyleneoxyphenyl]-2,4-pyrimidinediamine], the half-maximal inhibitory concentration (IC50) is 5.82 µM.

In turn, `Cc1cnc(Nc2ccc3c(c2)ncn3CCO)nc1Nc1ccc(CNS(=O)(=O)C2CC2)cc1` [IV-8, N4-(4-cyclopropylsulfonylaminomethyl)phenyl-N2-[1-(2-hydroxyethyl)benzoimidazol-5-yl]-5-methyl-2,4-pyrimidinediamine] registered an IC50 of 0.257 µM.

In turn, `Cc1cc(Nc2ncc(F)c(Nc3ccc4c(c3)CCN4S(C)(=O)=O)n2)ccc1N1CCN(C)CC1` [VIII-5] gave a half-maximal inhibitory concentration (IC50) of 0.0709 µM.

For `COc1ccc(Nc2ncc(F)c(Nc3ccc(CNS(=O)(=O)C4CC4)cc3)n2)cc1Cl` [II-3, N2-(3-chloro-4-methoxy)phenyl-N4-(4-cyclopropylsulfonylaminomethyl)phenyl-5-fluoro-2,4-pyrimidinediamine], half-maximal inhibition (IC50) required 0.116 µM.

The molecule `Cc1cnc(Nc2ccc3[nH]c(-c4cccnc4)nc3c2)nc1Nc1ccc(CNS(=O)(=O)C2CC2)cc1` [IV-3, N4-(4-cyclopropylsulfonylaminomethyl)phenyl-5-methyl-N2-[2-(pyridin-3-yl)benzoimidazol-5-yl]-2,4-pyrimidinediamine] yielded an IC50 of 0.178 µM.

`Cc1cnc(Nc2ccc3[nH]c(C(C)(C)C)nc3c2)nc1Nc1ccc(CNS(=O)(=O)C2CC2)cc1` [IV-4, N2-(2-tert-butylbenzoimidazol-5-yl)-N4-(4-cyclopropylsulfonylaminomethyl)phenyl-5-methyl-2,4-pyrimidinediamine] returned a concentration for half-maximal inhibition (IC50) of 0.127 µM.

For `C#CCOc1ccc(Nc2ncc(C(F)(F)F)c(Nc3ccc(C)c(S(N)(=O)=O)c3)n2)cc1` [I-3, N4-(3-Aminosulfonyl-4-methylphenyl)-N2-[4-(prop-2-ynyloxy)phenyl]-5-trifluoromethyl-2,4-pyrimidinediamine], the 50% inhibitory concentration (IC50) is 0.153 µM.

`Cc1cnc(Nc2ccc3[nH]cnc3c2)nc1Nc1ccc(CNS(=O)(=O)C2CC2)cc1` [IV-1, N2-(benzoimidazol-5-yl)-N4-(4-cyclopropylsulfonylaminomethyl)phenyl-5-methyl-2,4-pyrimidinediamine] came in with an IC50 of 0.0747 µM.

`CNC(=O)COc1cccc(Nc2ncc(N)c(Nc3ccc(S(N)(=O)=O)cc3)n2)c1` [I-6, 5-Amino-N4-(4-aminosulfonylphenyl)-N2-[3-(N-methylamino)carbonylmethyleneoxyphenyl]-2,4-pyrimidinediamine] displayed a concentration for half-maximal inhibition (IC50) of 8.8 µM.

`COc1ccc(N(C)c2ncc(N)c(Nc3ccc(S(N)(=O)=O)cc3)n2)cc1` [I-9, 5-Amino-N4-(4-aminosulfonylphenyl)-N2-(4-methoxyphenyl)-N2-methyl-2,4-pyrimidinediamine] came in with an IC50 of 99.6 µM.

Consider `Cc1cnc(Nc2ccc3[nH]c(C(F)(F)F)nc3c2)nc1Nc1ccc(CNS(=O)(=O)C2CC2)cc1` [IV-2, N4-(4-cyclopropylsulfonylaminomethyl)phenyl-5-methyl-N2-(2-trifluoromethylbenzoimidazol-5-yl)-2,4-pyrimidinediamine], for which the IC50 amounted to 0.044 µM.

`Cc1nc2ccc(Nc3ncc(F)c(Nc4ccc5c(c4)CCN5S(C)(=O)=O)n3)cc2[nH]1` [VIII-6, 5-Fluoro-N4-[(1-methylsulfonyl)indolin-5-yl]-N2-(2-methylbenzimidazol-5-yl)-2,4-pyrimidinediamine] gave an IC50 of 0.349 µM.

`O=S(=O)(NCc1ccc(Nc2nc(Nc3ccc(F)c(F)c3)ncc2F)cc1)C1CC1` [II-2, N4-(4-cyclopropylsulfonylaminomethyl)phenyl-N2-(3,4-difluoro)phenyl-5-fluoro-2,4-pyrimidinediamine] gave a 50% inhibitory concentration (IC50) of 0.614 µM.
